Laboratory results published in patent publication US20250375456A1, “AGENT FOR PREVENTING OR TREATING RESPIRATORY DISEASE” (Nippon Chemiphar Co., Ltd., priority 2021, published 2025).

Legend:
Format in all cases: in vivo, guinea pig
[1] = tested on: cigarette smoke-exposed guinea pigs; test: Measurement of citric acid-induced cough reflex in cigarette smoke-exposed model; details: for mean number of cough reflexes: Day 20 or 21, 2 hours after administration, 0.1 mol/L citric acid, 15 minutes
Description: (§1) Male Hartley guinea pigs (manufactured by Japan SLC, Inc., Slc: Hartley, SPF) were used in the test. The guinea pigs were purchased at 5 weeks old. The weights at the time of the purchase were about 300 to 350 g. After arrival, the guinea pigs were provided with an acclimation period of 9 days, including the day of receipt. During the above period, the clinical symptoms of the animals were observed once a day. In addition, on the last day of the acclimation period, the animals were weighed and the health status was measured. It was confirmed that there were no abnormal clinical signs or […] in any of the animals. Body weights on the last day of the acclimation (that is, at the beginning of exposure to cigarette smoke) were about 390 to 450 g.
(§2) Experimental animals were prepared with reference to Non Patent Literature 2. Specifically, guinea pigs exposed to cigarette smoke using a smoking exposure system (INH06-CIG01A, INH06-CIG02, M.I.P.S. Inc.) were used in the experiment. Each guinea pig was placed in an exposure holder (one per cage), and the holder was secured in the exposure chamber. The animals were exposed to the smoke of 30 cigarette per day, 5 days a week, for 4 weeks, the smoke being generated by a mainstream smoke generator. In the fourth week, the exposure was for 4 days (smoking period was from […]). As for the cigarettes, Peace (no filter, tar: 28 mg, nicotine: 2.3 mg, Japan Tobacco Inc., Peace is a registered trademark of Japan Tobacco Inc.) was used.
(§3) The placebo and each drug were administered by forced oral administration into the stomach using a disposable syringe equipped with a gastric catheter. As for the administration frequency, repetitive administration was performed once a day for 25 days from Day 1 to Day 25. The administration time was 1 hour (±5 minutes) before the cigarette smoke-exposure. The dose was 5 mL/kg. The actual amount of each drug administered to each guinea pig was calculated based on the most recent weight.
Measurements were performed 1 day or 2 days after the last cigarette smoke exposure during Week 3 (Day 20 or Day 21).
The measurements were performed 2 hours after the administration of the placebo or various drugs.
The guinea pigs were placed in the inhalation chamber of the respiratory function measurement system (Pulmos-I, M.I.P.S. Co.). Cough reflex was induced by inhaling citric acid (lot no. M8K7523, manufactured by NACALAI TESQUE, INC.) for 3 minutes from the front side of the chamber using an ultrasonic nebulizer. […] The presence or absence of a cough reflex was determined from the sound during the cough reflex, the movement of the animal, and the respiratory function. Before the measurement on the day of the administration, the animals were placed in the chamber for 15 minutes or longer to acclimatize to the experimental environment. Note that the respiratory function (respiratory rate (RR), tidal volume (TV), peak expiratory flow (PEF), and minute volume (MV)) was measured immediately before the citric acid inhalation. The respiratory function was measured by the body side sensor of the respiratory function measurement system.

[2] = Measurement of weights in cigarette smoke-exposed model; details: Day 1 to Day 26; Compound A 3, 10, 30 mg/kg, gefapixant 10 mg/kg, oral once a day
Description: as §1
Experimental animals were prepared with reference to Non Patent Literature 2. Specifically, guinea pigs exposed to cigarette smoke using a smoking exposure system (INH06-CIG01A, INH06-CIG02, M.I.P.S. Inc.) were used in the experiment. […]
The placebo and each drug were administered by forced oral administration into the stomach using a disposable syringe equipped with a gastric catheter. […] The actual amount of each drug administered to each guinea pig was calculated based on the most recent weight.
The weights were measured with an electronic balance (MSA4202S, Sartorius Japan K.K.) before the research operation on Days 1, 8, 15, 22, and 26.

[3] = tested on: cigarette smoke-exposed guinea pigs; test: Measurement of respiratory function (double flow plethysmography) in cigarette smoke-exposed model
Description: as §1, §2
Unless otherwise specified, various evaluations were performed on the day after the last cigarette smoke-exposure in the second week (Day 13) and the day after the last cigarette smoke-exposure (Day 26).
The solvent of Compound A was used as the placebo of the control group.
as §3
Respiratory function in conscious guinea pigs was measured by double flow plethysmography using a respiratory function measurement system (Pulmos-I, M.I.P.S Inc.). The measurement parameters were specific airway resistance (sRaw), tidal volume (TV), respiratory rate (RR), minute volume (MV), and peak expiratory flow (PEF). The average value of the measurement values obtained with 100 breaths was considered as the measurement value for each measurement day.

[4] = tested on: cigarette smoke-exposed guinea pigs; test: Number of cells in bronchoalveolar lavage fluid (BALF) in cigarette smoke-exposed model
Description: as §1, §2, §3
The measurement was performed after the day after the last cigarette smoke exposure (Day 26).
After sacrificing the guinea pigs by bleeding under anesthesia, bronchoalveolar lavage fluid (BALF) was collected according to the following operating procedure.
(1) After ligating the left main bronchus with a thread, a cannula was inserted into the trachea and fixed.
(2) 5 mL of saline was injected into the right lung through the cannula, and the lavage fluid was collected by gentle suctioning. BALF was collected by repeating this procedure twice (a total of 10 mL).
The pellet was suspended in 1 mL of saline, and the number of WBCs were counted using an automated hematology analyzer with a BALF analysis area (XT-2000iV, Sysmex Corporation). The counting was performed by adjusting the smear preparation. The smear preparation was performed by centrifuging the cell suspension again and suspending the obtained pellet in 75% FBS (fetal bovine serum and saline). After drying, the smear preparation was Wright-Giemsa stained.
The percentages of neutrophils, macrophages, eosinophil, and lymphocytes with respect to total WBCs were obtained, and the numbers of the cells per 1 μL were calculated.

[5] = Day 13, 10 mg/kg oral once a day
[6] = Day 26, 10 mg/kg oral once a day
[7] = Day 26, high-dose group 30 mg/kg oral
[8] = Day 26, low-dose group 3 mg/kg oral
[9] = Day 26, medium-dose group 10 mg/kg oral

In the case of `O=C1CC(=O)N(c2ccc(NC(=O)c3ccccc3I)cc2)c2ccc3ccccc3c2N1` [Compound B48, 5-[4-(2-iodobenzoylamino)phenyl]-1H-naphtho[1,2-b][1,4]diazepine-2,4(3H,5H)-dione], the “number of cough reflexes compared to the control (placebo) group” value ([1]; 10 mg/kg oral) was “no significant difference”, the “mean number of cough reflexes” value ([1]; 10 mg/kg oral) was 6.9 and the “number of cough reflexes compared to the control (placebo) group” value ([1]; high-dose group 30 mg/kg oral) was “tendency of suppressing the cough reflex”. For the same molecule, the “mean number of cough reflexes” value ([1]; high-dose group 30 mg/kg oral) was 3.6, the “number of cough reflexes compared to the control (placebo) group” value ([1]; low-dose group 3 mg/kg oral) was “no significant difference” and the “mean number of cough reflexes” value ([1]; low-dose group 3 mg/kg oral) was 6.0. The “weight changes compared to the control (placebo) group” value [2] was “comparable”, the “minute volume (MV), dose dependence” value ([3]; 3, 10, 30 mg/kg oral) was “tendency of increasing in a dose-dependent manner” and the “peak expiratory flow (PEF), dose dependence” value ([3]; 3, 10, 30 mg/kg oral) was “tendency of increasing in a dose-dependent manner”. The “tidal volume (TV), dose dependence” value ([3]; 3, 10, 30 mg/kg oral) was “tendency of increasing in a dose-dependent manner”, the “sRaw, dose dependence” value ([3]; 3, 10, 30 mg/kg oral, Day 13 and Day 26) was “decreased in a dose-dependent manner” and the “specific airway resistance (sRaw)” value [3, 5] was 1.711 cmH2O·sec. For the same molecule, the “specific airway resistance (sRaw)” value ([3]; Day 13, high-dose group 30 mg/kg oral once a day) was 1.556 cmH2O·sec, the “sRaw compared to the control (placebo) group” value ([3]; Day 13, high-dose group 30 mg/kg oral, P<0.05) was “significant decrease” and the “specific airway resistance (sRaw)” value ([3]; Day 13, low-dose group 3 mg/kg oral once a day) was 1.755 cmH2O·sec. For the same molecule, the “specific airway resistance (sRaw)” value [3, 6] was 2.017 cmH2O·sec, the “respiratory rate (RR), dose dependence” value ([3]; Day 26, 3, 10, 30 mg/kg oral) was “tendency of decreasing in a dose-dependent manner” and the “specific airway resistance (sRaw)” value ([3]; Day 26, high-dose group 30 mg/kg oral once a day) was 1.994 cmH2O·sec. The “specific airway resistance (sRaw)” value ([3]; Day 26, low-dose group 3 mg/kg oral once a day) was 2.105 cmH2O·sec, the “PEF compared to the control (placebo) group” value ([3]; all Compound A groups (3, 10, 30 mg/kg)) was “higher” and the “MV compared to the control (placebo) group” value ([3]; medium-dose group (10 mg/kg) and high-dose group (30 mg/kg)) was “higher”. The “mean number of macrophages in BALF” value ([4]; Day 26, 10 mg/kg oral) was 20.2 ×10^2 cells/μL, the “mean number of total WBCs in BALF” value ([4]; Day 26, 10 mg/kg oral) was 30.1 ×10^2 cells/μL and the “macrophages, dose dependence” value ([4]; Day 26, 3, 10, 30 mg/kg oral) was “smaller than that in the control (placebo) group in a dose-dependent manner”. For the same molecule, the “neutrophils, dose dependence” value ([4]; Day 26, 3, 10, 30 mg/kg oral) was “tendency of decreasing in a dose-dependent manner”, the “number of eosinophils compared to the control (placebo) group” value ([4]; Day 26, 3, 10, 30 mg/kg oral) was “no significant difference” and the “number of lymphocytes compared to the control (placebo) group” value ([4]; Day 26, 3, 10, 30 mg/kg oral) was “no significant difference”. For the same molecule, the “total WBCs, dose dependence” value ([4]; Day 26, 3, 10, 30 mg/kg oral) was “smaller than that in the control (placebo) group in a dose-dependent manner”, the “mean number of eosinophils in BALF” value [4, 7] was 5.6 ×10^2 cells/μL and the “mean number of lymphocytes in BALF” value [4, 7] was 1.0 ×10^2 cells/μL. The “mean number of macrophages in BALF” value [4, 7] was 12.0 ×10^2 cells/μL, the “mean number of neutrophils in BALF” value [4, 7] was 2.3 ×10^2 cells/μL and the “mean number of total WBCs in BALF” value [4, 7] was 20.9 ×10^2 cells/μL. For the same molecule, the “number of macrophages compared to the control (placebo) group” value [4, 7] was “significantly suppressed”, the “total number of WBCs compared to the control (placebo) group” value [4, 7] was “significantly suppressed” and the “mean number of eosinophils in BALF” value [4, 8] was 4.8 ×10^2 cells/μL. For the same molecule, the “mean number of lymphocytes in BALF” value [4, 8] was 1.1 ×10^2 cells/μL, the “mean number of macrophages in BALF” value [4, 8] was 25.0 ×10^2 cells/μL and the “mean number of neutrophils in BALF” value [4, 8] was 3.1 ×10^2 cells/μL. The “mean number of total WBCs in BALF” value [4, 8] was 33.9 ×10^2 cells/μL, the “mean number of eosinophils in BALF” value [4, 9] was 6.1 ×10^2 cells/μL and the “mean number of lymphocytes in BALF” value [4, 9] was 1.2 ×10^2 cells/μL. The “mean number of neutrophils in BALF” value [4, 9] was 2.5 ×10^2 cells/μL.
In the case of `COc1cc(C(C)C)c(Oc2cnc(N)nc2N)cc1S(N)(=O)=O` [Gefapixant, reference compound], the “number of cough reflexes compared to the control (placebo) group” value ([1]; 10 mg/kg oral) was “no significant difference”, the “mean number of cough reflexes” value ([1]; 10 mg/kg oral) was 4.5 and the “weight changes compared to the control (placebo) group” value [2] was “comparable”. The “effect on the respiratory function” value ([3]; 10 mg/kg oral) was “did not have a significant effect”, the “specific airway resistance (sRaw)” value [3, 5] was 1.675 cmH2O·sec and the “sRaw compared to the control (placebo) group” value ([3]; Day 13 and Day 26, 10 mg/kg oral) was “no significant difference”. The “specific airway resistance (sRaw)” value [3, 6] was 2.066 cmH2O·sec, the “effect on the changes in the number of cells in BALF” value ([4]; 10 mg/kg oral) was “did not have an effect” and the “mean number of macrophages in BALF” value ([4]; Day 26, 10 mg/kg oral) was 24.4 ×10^2 cells/μL. The “mean number of total WBCs in BALF” value ([4]; Day 26, 10 mg/kg oral) was 40.0 ×10^2 cells/μL, the “number of macrophages compared to the control (placebo) group” value ([4]; Day 26, 10 mg/kg oral) was “no significant different” and the “total number of WBCs compared to the control (placebo) group” value ([4]; Day 26, 10 mg/kg oral) was “no significant different”.
